In ChEMBL document CHEMBL5058564, “EUbOPEN Chemogenomics Library 2 (Incucyte)” (2022):

Key:
Assay type in all cases: toxicity, cell-based
[1] = test system: HEK-293T; experiment: Incucyte cell viability with HEK293T; conditions: human, 10 µM, compound concentration 10 uM
[2] = test system: Fibroblast; experiment: Incucyte cell viability with human fibroblast; conditions: 10 µM, compound concentration 10 uM
[3] = test system: U2OS; experiment: Incucyte cell viability with U2OS; conditions: human, 10 µM, compound concentration 10 uM
[4] = 6 h, replicate number 1, timepoint 6 hours
[5] = 6 h, replicate number 2, timepoint 6 hours
[6] = 12 h, replicate number 1, timepoint 12 hours
[7] = 12 h, replicate number 2, timepoint 12 hours
[8] = 18 h, replicate number 1, timepoint 18 hours
[9] = 18 h, replicate number 2, timepoint 18 hours
[10] = 24 h, replicate number 1, timepoint 24 hours
[11] = 24 h, replicate number 2, timepoint 24 hours
[12] = 0 h, replicate number 1, timepoint 0 hours
[13] = 0 h, replicate number 2, timepoint 0 hours
Further: unitless GR value; below 1 slowed growth and below 0 cell loss.

Row | Structure (SMILES) | Growth Rate [1, 4] | Growth Rate [1, 5] | Growth Rate [1, 6] | Growth Rate [1, 7] | Growth Rate [1, 8] | Growth Rate [1, 10] | Growth Rate [1, 11] | Growth Rate [2, 4] | Growth Rate [2, 5] | Growth Rate [2, 6] | Growth Rate [2, 7] | Growth Rate [2, 8] | Growth Rate [2, 9] | Growth Rate [2, 10] | Growth Rate [2, 11] | Growth Rate [3, 13] | Growth Rate [3, 6] | Growth Rate [3, 12] | Growth Rate [3, 8] | Growth Rate [3, 10] | further results
1 | N#Cc1c(Oc2cccc(OS(=O)(=O)CCCC(F)(F)F)c2)cccc1C(F)(F)F | -0.16 | 0.24 | 0 | 0.28 | -0.01 | 0.06 | 0.55 | -0.53 | -0.47 | -0.11 | -0.08 | -0.21 | 0.02 | -0.18 | 0 | 0.57 | 0.86 |  |  |  | Growth Rate [1, 9]: 0.31; Growth Rate [2, 12]: 0.09; Growth Rate [3, 7]: 0.82; Growth Rate [3, 9]: 0.81; Growth Rate [3, 11]: 0.96
2 | COc1cc(/C=C/C(=O)NCCn2c(C)cc3ccccc32)cc(OC)c1OC | 0.24 | 0.36 | 0.61 | 0.51 | 0.69 | 0.75 | 0.76 | 0.79 | 0.39 | 0.87 | 0.39 | 0.66 | 0.71 | 0.67 | 0.73 | -0.39 | 0.62 | -0.71 | 0.51 | 0.75 | Growth Rate [1, 9]: 0.55; Growth Rate [2, 12]: 0.86; Growth Rate [3, 4]: 0.34; Growth Rate [3, 5]: 0.73
3 | CCCCCCCCCCCCC/C=C/[C@@H](O)[C@@H](N)COP(=O)(O)O | -0.22 | -0.17 | 0.04 | 0.22 | 0.27 | 0.48 | 0.52 | -0.68 | -0.13 | 0.19 | 0.17 | 0.53 |  | 0.82 | 0.63 | 0.31 | 0.95 |  | 0.99 | 0.88 | Growth Rate [3, 9]: 0.89; Growth Rate [3, 11]: 0.89
4 | C[C@H](N)Cn1ccc2cc(F)c(Cl)cc21.O=C(O)/C=C/C(=O)O | 0.52 |  | 0.55 |  | 0.67 | 0.66 |  | 0.43 | 0.72 | 0.49 | 0.81 | 0.6 | 0.9 | 0.6 | 0.79 | 0.24 | 0.57 | -0.71 | 0.92 | 0.91 | Growth Rate [3, 4]: 0.36; Growth Rate [3, 5]: 0.68
5 | OCCCNc1cc(-c2ccnc(Nc3cccc(Cl)c3)n2)ccn1 | -0.65 | -0.7 | -0.52 | -0.62 | -0.38 | -0.29 | -0.38 | -0.19 | 0.11 | -0.15 | -0.06 | -0.2 | -0.09 | -0.02 | -0.06 | -0.28 | 0.44 | -0.27 | 0.26 | 0.23 | Growth Rate [1, 9]: -0.46; Growth Rate [2, 12]: -0.42; Growth Rate [2, 13]: -0.55; Growth Rate [3, 4]: 0.44; Growth Rate [3, 7]: 0.56; Growth Rate [3, 9]: 0.36; Growth Rate [3, 11]: 0.24
6 | Cc1cc(O)c(-c2ccc([C@@H](C)CN(C)C)cc2)c2c1[nH]c(=O)c1sccc12 | -0.8 | -0.77 | -0.64 | -0.63 | -0.48 | -0.37 | -0.4 | -0.87 | -0.66 | -0.63 | -0.4 | -0.6 | -0.3 | -0.36 | -0.25 | 1 | 0.65 | -0.17 | 0.13 | 0.16 | Growth Rate [1, 9]: -0.52; Growth Rate [3, 4]: 0.74; Growth Rate [3, 5]: 0.66; Growth Rate [3, 7]: 0.31; Growth Rate [3, 9]: 0.18; Growth Rate [3, 11]: 0.09
7 | COc1cc(C(=O)N2CC[C@@H](O)[C@@H](N)C2)cc2nc(-c3cc4ccccc4n3CC3CC3)n(C)c12.Cl | 0.71 |  | 0.85 |  | 0.88 | 0.77 |  | -0.98 | -0.57 | -0.8 | -0.18 | -0.63 | -0.01 | -0.52 | 0.15 | 0.15 |  | -0.04 |  |  | Growth Rate [3, 4]: 0.61; Growth Rate [3, 7]: 0.98; Growth Rate [3, 9]: 0.99
8 | CSc1ccccc1N1CCN(CCCCCC(=O)NC2CCCc3ccccc32)CC1.Cl (stereo unspecified) | -0.01 | -0.04 | 0.07 | -0.09 | 0.16 | 0.29 | 0.17 |  | 0.95 | 0.31 | 0.26 | 0.05 | 0.24 | -0.06 | 0.23 | 0.92 | 0.43 | -0.43 | 0.53 | 0.76 | Growth Rate [1, 9]: 0.15; Growth Rate [2, 12]: 0.06; Growth Rate [3, 4]: 0.17; Growth Rate [3, 7]: 0.96; Growth Rate [3, 9]: 0.92; Growth Rate [3, 11]: 0.94
9 | Br.Br.N=C(N)NCCSC(=N)N | 0.74 |  | 0.76 | 0.86 | 0.98 | 1 | 0.81 | 0.23 | 0.98 | 0.19 |  | 0.54 |  | 0.49 |  | 0.56 | 0.88 | -0.2 | 0.96 | 0.37 | Growth Rate [1, 9]: 0.92; Growth Rate [2, 13]: 0.9; Growth Rate [3, 5]: 0.98; Growth Rate [3, 7]: 0.99
10 | Cc1ccccc1C(=O)Nc1ccc(C(=O)N2CCCC(N(C)C)c3ccccc32)cc1.Cl (stereo unspecified) | -0.55 | -0.44 | -0.32 | -0.03 | -0.11 | 0.1 | 0.22 | -0.99 | -0.65 | -0.85 | -0.38 | -0.63 | -0.1 | -0.44 | 0.07 |  | -0.03 | 0.36 | -0.06 | -0.11 | Growth Rate [1, 9]: 0.08; Growth Rate [3, 4]: 0.05; Growth Rate [3, 5]: -0.11; Growth Rate [3, 7]: -0.22; Growth Rate [3, 9]: -0.09; Growth Rate [3, 11]: -0.08
11 | CC(C)Oc1ccc(Cc2ccc(NC3=NCCN3)cc2)cc1 | -0.2 | -0.01 | 0.03 | 0.1 | 0.16 | 0.24 | 0.21 | 0.07 | -0.09 | 0.4 | 0.19 | 0.28 | 0.64 | 0.42 | 0.46 | 0.45 | 0.74 | -0.1 | 0.82 | 0.84 | Growth Rate [1, 9]: 0.27; Growth Rate [3, 4]: 0.26; Growth Rate [3, 5]: 0.51; Growth Rate [3, 7]: 0.75; Growth Rate [3, 9]: 0.91; Growth Rate [3, 11]: 0.95
